Several values for one entry are separate records, joined by “and”; a condition that tells them apart may be missing. Identical values can stand only once. Inconclusive results and toxic doses are left out.
Test system: BDF1 mice, P388 leukemia ip, median survival T/C
Assay: NCI In Vivo Anticancer Drug Screen. Data for tumor model P388 Leukemia (intraperitoneal) in B6D2F1 (BDF1) mice
Settings: endpoint: median survival time, higher = longer survival
Procedure, shortened: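 Transplantable tumour in mice; compound vs vehicle dosing; survival scored; ratio of treated to control reported.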

[1] = dose: 25.0 mg/kg/injection, schedule: Q04DX003 (ip), vehicle: Klucel (hydroxypropylcellulose) (HPC)
[2] = dose: 100.0 mg/kg/injection, schedule: Q04DX003 (ip), vehicle: other
[3] = dose: 12.5 mg/kg/injection, schedule: Q01DX009 (ip), vehicle: water
[4] = dose: 100.0 mg/kg/injection, schedule: Q04DX003 (ip), vehicle: saline with Tween-80
[5] = dose: 200.0 mg/kg/injection, schedule: Q04DX003 (ip), vehicle: saline with Tween-80
[6] = dose: 400.0 mg/kg/injection, schedule: Q04DX003 (ip), vehicle: saline with Tween-80
[7] = dose: 25.0 mg/kg/injection, schedule: Q04DX003 (ip), vehicle: saline
[8] = dose: 100.0 mg/kg/injection, schedule: Q04DX003 (ip), vehicle: saline

With `Cn1ccc2nncn2c1=O` as the compound, how does the T/C (dose: 100.0 mg/kg/injection, schedule: Q01DX001 (ip), vehicle: saline with Tween-80) read?
The T/C was 115 % of control.

What about the T/C (dose: 200.0 mg/kg/injection, schedule: Q01DX001 (ip), vehicle: saline with Tween-80) of the same compound?
The T/C was 95 % of control.

What about the T/C (dose: 400.0 mg/kg/injection, schedule: Q01DX001 (ip), vehicle: saline with Tween-80) of the same compound?
Its T/C is 98 % of control.

With `CCc1ccc(NC(=O)N(CCCl)N=O)cc1` as the compound, how does the T/C (dose: 0.62 mg/kg/injection, schedule: Q04DX003 (ip), vehicle: Klucel (hydroxypropylcellulose) (HPC)) read?
Its T/C is 109 % of control.

And the T/C (dose: 0.8 mg/kg/injection, schedule: Q01DX009 (ip), vehicle: gum acacia)?
Its T/C is 158 % of control.

And the T/C (dose: 1.3 mg/kg/injection, schedule: Q01DX009 (ip), vehicle: gum acacia)?
Its T/C is 154 % of control.

And the T/C (dose: 2.0 mg/kg/injection, schedule: Q01DX009 (ip), vehicle: gum acacia)?
The T/C was 153 % of control and 187 % of control.

What about the T/C (dose: 3.0 mg/kg/injection, schedule: Q01DX009 (ip), vehicle: gum acacia) of the same compound?
The T/C was 176 % of control.

What about the T/C (dose: 4.5 mg/kg/injection, schedule: Q01DX009 (ip), vehicle: gum acacia) of the same compound?
The T/C was 196 % of control.

And the T/C (dose: 5.0 mg/kg/injection, schedule: Q04DX003 (ip), vehicle: Klucel (hydroxypropylcellulose) (HPC))?
Its T/C is 177 % of control and 204 % of control.

What about the T/C (dose: 7.0 mg/kg/injection, schedule: Q01DX009 (ip), vehicle: gum acacia) of the same compound?
Its T/C is 230 % of control and 236 % of control.

What about the T/C (dose: 8.0 mg/kg/injection, schedule: Q04DX003 (ip), vehicle: Klucel (hydroxypropylcellulose) (HPC)) of the same compound?
Its T/C is 214 % of control.

And the T/C (dose: 11.0 mg/kg/injection, schedule: Q01DX009 (ip), vehicle: gum acacia)?
Its T/C is 250 % of control.

And the T/C (dose: 12.0 mg/kg/injection, schedule: Q04DX003 (ip), vehicle: Klucel (hydroxypropylcellulose) (HPC))?
Its T/C is 238 % of control.

And the T/C (dose: 17.0 mg/kg/injection, schedule: Q01DX009 (ip), vehicle: gum acacia)?
Its T/C is 196 % of control.

What about the T/C (dose: 18.0 mg/kg/injection, schedule: Q04DX003 (ip), vehicle: Klucel (hydroxypropylcellulose) (HPC)) of the same compound?
The T/C was 233 % of control and 285 % of control.

And the T/C (dose: 25.0 mg/kg/injection, schedule: Q01DX009 (ip), vehicle: gum acacia)?
The T/C was 212 % of control.

And the T/C [1]?
Its T/C is 300 % of control.

What about the T/C (dose: 37.0 mg/kg/injection, schedule: Q04DX003 (ip), vehicle: Klucel (hydroxypropylcellulose) (HPC)) of the same compound?
The T/C was 300 % of control.

With `O=C(CC(O)(C(F)(F)F)C(F)(F)F)c1ccc(Br)cc1` as the compound, how does the T/C (dose: 100.0 mg/kg/injection, schedule: Q01DX009 (ip), vehicle: other) read?
Its T/C is 91 % of control.

And the T/C [2]?
Its T/C is 120 % of control.

What about the T/C (dose: 200.0 mg/kg/injection, schedule: Q01DX009 (ip), vehicle: other) of the same compound?
Its T/C is 91 % of control.

What about the T/C (dose: 200.0 mg/kg/injection, schedule: Q04DX003 (ip), vehicle: other) of the same compound?
The T/C was 110 % of control.

And the T/C (dose: 400.0 mg/kg/injection, schedule: Q01DX009 (ip), vehicle: other)?
Its T/C is 91 % of control.

What about the T/C (dose: 400.0 mg/kg/injection, schedule: Q04DX003 (ip), vehicle: other) of the same compound?
Its T/C is 120 % of control.

With `CC(=O)c1ccc(NC(=O)N(CCCl)N=O)cc1` as the compound, how does the T/C (dose: 0.29 mg/kg/injection, schedule: Q04DX003 (ip), vehicle: Klucel (hydroxypropylcellulose) (HPC)) read?
The T/C was 118 % of control.

What about the T/C (dose: 0.43 mg/kg/injection, schedule: Q04DX003 (ip), vehicle: Klucel (hydroxypropylcellulose) (HPC)) of the same compound?
Its T/C is 113 % of control.

And the T/C (dose: 0.99 mg/kg/injection, schedule: Q04DX003 (ip), vehicle: saline)?
The T/C was 150 % of control.

And the T/C (dose: 18.75 mg/kg/injection, schedule: Q04DX003 (ip), vehicle: Klucel (hydroxypropylcellulose) (HPC))?
The T/C was 218 % of control.

And the T/C (dose: 24.75 mg/kg/injection, schedule: Q04DX003 (ip), vehicle: Klucel (hydroxypropylcellulose) (HPC))?
The T/C was 204 % of control.

What about the T/C (dose: 37.5 mg/kg/injection, schedule: Q04DX003 (ip), vehicle: Klucel (hydroxypropylcellulose) (HPC)) of the same compound?
Its T/C is 236 % of control and 90 % of control.

And the T/C (dose: 56.25 mg/kg/injection, schedule: Q04DX003 (ip), vehicle: Klucel (hydroxypropylcellulose) (HPC))?
The T/C was 109 % of control.

What about the T/C (dose: 75.0 mg/kg/injection, schedule: Q04DX003 (ip), vehicle: Klucel (hydroxypropylcellulose) (HPC)) of the same compound?
Its T/C is 122 % of control.

`Clc1ccc(-c2cc(=[N+]3CCOCC3)ss2)cc1` was tested. Which T/C [3] did it give?
Its T/C is 118 % of control.

And the T/C (dose: 25.0 mg/kg/injection, schedule: Q01DX009 (ip), vehicle: water)?
Its T/C is 102 % of control.

And the T/C (dose: 25.0 mg/kg/injection, schedule: Q04DX003 (ip), vehicle: water)?
The T/C was 94 % of control.

What about the T/C (dose: 50.0 mg/kg/injection, schedule: Q01DX009 (ip), vehicle: water) of the same compound?
The T/C was 111 % of control.

What about the T/C (dose: 50.0 mg/kg/injection, schedule: Q04DX003 (ip), vehicle: water) of the same compound?
The T/C was 100 % of control.

And the T/C (dose: 100.0 mg/kg/injection, schedule: Q01DX009 (ip), vehicle: water)?
The T/C was 111 % of control.

And the T/C (dose: 100.0 mg/kg/injection, schedule: Q04DX003 (ip), vehicle: water)?
Its T/C is 90 % of control.

What about the T/C (dose: 200.0 mg/kg/injection, schedule: Q04DX003 (ip), vehicle: water) of the same compound?
Its T/C is 110 % of control.

How did the T/C (dose: 12.5 mg/kg/injection, schedule: Q04DX003 (ip), vehicle: Klucel (hydroxypropylcellulose) (HPC)) turn out when `CN(C(=O)c1ccccc1)N(C)C(=O)c1ccccc1` was run?
The T/C was 90 % of control.

What about the T/C [1] of the same compound?
The T/C was 109 % of control.

And the T/C (dose: 50.0 mg/kg/injection, schedule: Q04DX003 (ip), vehicle: Klucel (hydroxypropylcellulose) (HPC))?
The T/C was 100 % of control.

What does the source list for `Cc1ccc(NC(=O)COc2ccc(Cl)cc2Cl)cc1Cl`?
T/C [4]: 100 % of control; T/C [5]: 90 % of control; T/C [6]: 90 % of control

How did the T/C [2] turn out when `CC(=O)C(c1ccccc1)[N+](C)(C)C` (centres undefined) was run?
Its T/C is 108 % of control.

For `O=C(N/N=C\c1c(Cl)cccc1Cl)c1ccccc1`, which T/C (dose: 50.0 mg/kg/injection, schedule: Q04DX003 (ip), vehicle: acetone) is on record?
Its T/C is 113 % of control.

And the T/C (dose: 100.0 mg/kg/injection, schedule: Q04DX003 (ip), vehicle: acetone)?
The T/C was 95 % of control.

And the T/C (dose: 200.0 mg/kg/injection, schedule: Q04DX003 (ip), vehicle: acetone)?
The T/C was 90 % of control.

`CCN1CC=CCC1` was tested. Which T/C (dose: 25.0 mg/kg/injection, schedule: Q01DX009 (ip), vehicle: saline) did it give?
The T/C was 95 % of control.

What about the T/C [7] of the same compound?
The T/C was 95 % of control and 104 % of control and 118 % of control.

What about the T/C (dose: 35.0 mg/kg/injection, schedule: Q04DX003 (ip), vehicle: saline) of the same compound?
The T/C was 109 % of control.

What about the T/C (dose: 50.0 mg/kg/injection, schedule: Q01DX009 (ip), vehicle: saline) of the same compound?
Its T/C is 100 % of control.

What about the T/C (dose: 75.0 mg/kg/injection, schedule: Q04DX003 (ip), vehicle: saline) of the same compound?
The T/C was 86 % of control.

What about the T/C (dose: 100.0 mg/kg/injection, schedule: Q01DX009 (ip), vehicle: saline) of the same compound?
The T/C was 116 % of control.

And the T/C [8]?
Its T/C is 109 % of control.

Which T/C (dose: 20.0 mg/kg/injection, schedule: Q01DX009 (ip), vehicle: saline with Tween-80) does the source give for `Clc1ccc(N=C/C=C\C=C/Nc2ccc(Cl)cc2)cc1` here?
The T/C was 91 % of control.

How did the T/C [8] turn out when `N#C/C1=C(\N)CCCOCCCOCCCOCCCOCCCOCC1` was run?
The T/C was 97 % of control.

And the T/C (dose: 200.0 mg/kg/injection, schedule: Q04DX003 (ip), vehicle: saline)?
Its T/C is 92 % of control.

Which results are given for `CCN(CC)Cc1c(C)[nH]c2ccc(N(C)C)cc2c1=O`?
T/C (dose: 1.56 mg/kg/injection, schedule: Q01DX009 (ip), vehicle: water): 86 % of control and 110 % of control; T/C (dose: 3.12 mg/kg/injection, schedule: Q01DX009 (ip), vehicle: water): 89 % of control and 100 % of control; T/C (dose: 6.25 mg/kg/injection, schedule: Q01DX009 (ip), vehicle: water): 89 % of control; T/C (dose: 12.5 mg/kg/injection, schedule: Q01DX009 (ip), vehicle: Klucel (hydroxypropylcellulose) (HPC)): 99 % of control; T/C [3]: 120 % of control; T/C (dose: 25.0 mg/kg/injection, schedule: Q01DX009 (ip), vehicle: Klucel (hydroxypropylcellulose) (HPC)): 108 % of control; T/C [7]: 111 % of control; T/C (dose: 50.0 mg/kg/injection, schedule: Q01DX009 (ip), vehicle: Klucel (hydroxypropylcellulose) (HPC)): 99 % of control; T/C (dose: 50.0 mg/kg/injection, schedule: Q04DX003 (ip), vehicle: saline): 112 % of control; T/C [8]: 104 % of control; T/C (dose: 200.0 mg/kg/injection, schedule: Q01DX009 (ip), vehicle: Klucel (hydroxypropylcellulose) (HPC)): 106 % of control

`NC(=S)N/N=C\c1nccc2c(C(F)(F)C(F)(F)C(F)(F)F)cccc12` was tested. Which T/C [4] did it give?
Its T/C is 110 % of control.

And the T/C [5]?
The T/C was 98 % of control.

And the T/C [6]?
Its T/C is 88 % of control.

Which results are given for `[O-][n+]1c(CCl)nc2cccc3c2c1-c1ccccc1-3`?
T/C (dose: 12.5 mg/kg/injection, schedule: Q01DX009 (ip), vehicle: saline with Tween-80): 106 % of control; T/C (dose: 25.0 mg/kg/injection, schedule: Q01DX009 (ip), vehicle: saline with Tween-80): 111 % of control and 121 % of control (2×); T/C (dose: 50.0 mg/kg/injection, schedule: Q01DX009 (ip), vehicle: saline with Tween-80): 121 % of control; T/C (dose: 100.0 mg/kg/injection, schedule: Q01DX009 (ip), vehicle: saline with Tween-80): 93 % of control
